Test results: patent publication US20190169181A1, “FUMAGILLOL COMPOUNDS AND METHODS OF MAKING AND USING SAME” (Zafgen, Inc., priority 2016, published 2019)
pIC50: −log10 of the molar value. Where a name gives a salt, the structure may show the parent alone.

How the values were obtained:
[1] = target: T1, recombinant human MetAP2 (Homo sapiens, UniProt P50579); assay: Recombinant human MetAP2 enzyme inhibition assay (MAS peptide / amino acid oxidase / Amplex Ultrared readout); type: biochemical; details: Flag tagged human recombinant MetAP2, 25 minutes at 25° C.
T1 construct: Flag; made in house
Description: Compounds are tested for their capacity to inhibit recombinant human MetAP2 activity using the following assay.
Flag tagged Human recombinant MetAP2 expressed and isolated for use as the enzyme source. 10 mM stock solutions of compounds were prepared in 100% DMSO and further diluted in 100% DMSO required concentration to 1 mM stocks. The stock compound solutions and DMSO vehicle controls were diluted to target final compound concentrations using assay buffer to a final concentration of 50 mM HEPES containing 100 mM NaCl, pH adjusted to 7.5. The MAS peptide was formulated to a 7.5 mM stock in distilled water and prior to use further diluted 1:4. […] 40 μl of enzyme was mixed with 100 μl of MnCl2 then further diluted in assay buffer to a final concentration of 16 μg/ml. To test for compound effect on MetAP2 enzyme activity, 5 μl of test compound, 10 μl of MAS substrate/amino acid oxidase mixture, 10 μl of MetAP2 was added to test wells in a 384 well black plate with blank wells containing no enzyme, replaced with 10 μl of assay buffer. All compounds were tested in duplicate on two occasions on the same day.
The plate was sealed with a TopSeal A cover and mixed briefly on an orbital mixer at 900 rpm. The plate was incubated for a further 25 minutes at 25° C. A 5× stock of Amplex buffer was prepared (0.25 M sodium phosphate, pH 7.4) and stored at 4° C. […] Horse radish peroxidase was diluted in […] of Amplex buffer, 100 μl of this was combined with 50 μl of Amplex Ultrared in […] of 1× Amplex buffer to generate sufficient detection reagent for a 384 well plate. 25 μl detection reagent was added to each well of the test plate, which was re-sealed and mixed briefly on an orbital shaker. The plate was transferred to an Envision Multi-label reader and RFU measured corresponding to excitation 531 nm and emission 595 nm. At the end of the MetAP2 incubation 25 μl Amplex/HRP mixture per well was added and the plate read plate on a plate reader.

[2] = test system: Diet Induced Obese (DIO) C57BL/6 mice; assay: 10 day DIO mouse model, weight loss vs. vehicle; type: in vivo; details: 240 h; for inhibition in vivo at 0.3 mg/kg: 0.3 mpk sc once a day for 10 days; for inhibition in vivo at 1 mg/kg: 1.0 mpk sc once a day for 10 days
From the text: The objective of this study design was to investigate the efficacy of disclosed compounds in a 10 day DIO mouse model. Effects on body weight, food intake, hematology and blood chemistry were the primary readouts of this study design. Male, Diet Induced Obese (DIO) C57BL/6 mice, 19-21 weeks of age (13-15 weeks on high fat diet) were ordered from a certified vendor and upon receipt were housed on irradiated corncob bedding in micro-isolator cages on a 12-hour light-dark cycle (0700-1900) at 68-74° F. and 30-70% humidity. Mice were fed Research Diets D12492 (60% Kcal fat, 20% Kcal carbohydrate and 20% protein) and provided water ad libitum. DIO mice were received and housed in the facility for approximately two weeks prior to the start of test article administration. On Day −4 or −3, mice were randomized into study groups based on body weight and body weights were continued to be recorded daily for the duration of the study. Daily food intake was assessed starting on Study Day −2 by weighing of the food with hopper together to avoid loss of food in transfer.
(§1) Compounds were formulated into a 100% DMSO stock (at 9 mg/mL) prior to the start, and further diluted into the target working concentration using the vehicle of 10% DMSO in water. Prior to test article administration, starting on Day −3 a dosing acclimation occurred with all animals receiving a subcutaneous injection of vehicle (10% DMSO) only for 3 days. Starting on Day 1, test compounds or vehicle were administered based on individual body weight, subcutaneously, once a day for 10 days. All mice were sacrificed on Day 11, 24 hours following the final dosing on Day 10. After sacrifice, whole blood was collected and analyzed for hematology and blood chemistry parameters.
(§2) Compounds were tested for weight loss vs. vehicle at 0.3 and 1.0 mpk sc (mg per kg animal weight delivered subcutaneously), and the results are shown in Table 2 below.

[3] = test system: rat DIO model (Sprague Dawley rats on 45% High Fat diet); assay: 11 day rat DIO model, weight loss vs. vehicle; type: in vivo; details: for Rat @ 0.3 mpk sc (%) weight loss vs. vehicle: 0.3 mpk sc once a day for 11 days; for Rat @ 1.0 mpk sc (%) weight loss vs. vehicle: 1.0 mpk sc once a day for 11 days
From the text: The objective of this study design is to investigate the efficacy of disclosed compounds in an 11 day rat DIO model used to screen compounds for pharmacologic efficacy on endpoints related to obesity and metabolism. Effects on body weight, food intake, hematology and blood chemistries were the primary readouts of this study design. Male Sprague Dawley rats, approximately 8 weeks of age, were ordered from a certified vendor and housed on irradiated corncob bedding in micro-isolator cages, on a 12-hour light-dark cycle (0700-1900) at 68-74° F. and 30-70% humidity. Rats were fed Research Diets D12451 (45% High Fat) and provided water ad libitum. Rats were received and housed in the facility for at least two or three weeks prior to start of test article administration. On Day −4 or −3, rats were randomized into study groups based on body weight and body weights were continued to be recorded daily for the duration of the study. Daily food intake was assessed starting on Study Day −2 by weighing the hopper including the food to avoid loss of food in transfer.
as §1, with “for 11” for “for 10”, “All animals” for “All mice”, “11, approximately 2” for “11, 24”, “Day 11.” for “Day 10.”
as §2

T1 sequence (P50579 whole entry): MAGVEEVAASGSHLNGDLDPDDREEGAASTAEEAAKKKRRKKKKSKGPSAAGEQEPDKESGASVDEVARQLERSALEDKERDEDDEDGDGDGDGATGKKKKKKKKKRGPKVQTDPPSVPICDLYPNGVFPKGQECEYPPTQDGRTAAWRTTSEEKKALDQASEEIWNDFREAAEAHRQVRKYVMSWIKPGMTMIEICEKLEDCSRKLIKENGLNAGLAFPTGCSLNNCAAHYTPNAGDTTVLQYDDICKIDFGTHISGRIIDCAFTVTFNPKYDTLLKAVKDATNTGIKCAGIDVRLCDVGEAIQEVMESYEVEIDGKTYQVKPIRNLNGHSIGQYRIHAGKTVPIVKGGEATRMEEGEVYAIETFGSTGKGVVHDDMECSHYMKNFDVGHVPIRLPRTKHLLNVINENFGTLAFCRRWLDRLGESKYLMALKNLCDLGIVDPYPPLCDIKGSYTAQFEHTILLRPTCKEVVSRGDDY

Structure (SMILES)	pIC50 [1]	inhibition in vivo at 0.3 mg/kg [2] [%]	inhibition in vivo at 1 mg/kg [2] [%]	Rat @ 0.3 mpk sc (%) weight loss vs. vehicle [3] [%]	Rat @ 1.0 mpk sc (%) weight loss vs. vehicle [3] [%]
CO[C@@H]1[C@H](OC(=O)N[C@H](Cc2nc(=O)o[nH]2)C(C)C)CC[C@]2(CO2)[C@H]1[C@@]1(C)O[C@@H]1CC=C(C)C [Example 30, (3R,4S,5S,6R)-5-methoxy-4-((2R,3R)-2-methyl-3-(3-methylbut-2-enyl)oxiran-2-yl)-1-oxaspiro[2.5]octan-6-yl (R)-3-methyl-1-(5-oxo-4,5-dihydro-1,2,4-oxadiazol-3-yl)butan-2-ylcarbamate]	6.30 to 7.30	1.4	14.1	0.7	−0.4
CO[C@@H]1[C@H](OC(=O)N[C@H](c2cn(C[C@H]3CCN(C)C3)cn2)C(C)C)CC[C@]2(CO2)[C@H]1[C@@]1(C)O[C@@H]1CC=C(C)C [Example 15, (3R,4S,5S,6R)-5-methoxy-4-((2R,3R)-2-methyl-3-(3-methylbut-2-en-1-yl)oxiran-2-yl)-1-oxaspiro[2.5]octan-6-yl ((S)-2-methyl-1-(1-(((S)-1-methylpyrrolidin-3-yl)methyl)-1H-imidazol-4-yl)propyl)carbamate]	> 7.30	10.8	8.4	10.6	16.4
CO[C@@H]1[C@H](OC(=O)N[C@@H](Cc2noc(=O)[nH]2)C(C)C)CC[C@]2(CO2)[C@H]1[C@@]1(C)O[C@@H]1CC=C(C)C [Example 27, (3R,4S,5S,6R)-5-methoxy-4-((2R,3R)-2-methyl-3-(3-methylbut-2-enyl)oxiran-2-yl)-1-oxaspiro[2.5]octan-6-yl (S)-3-methyl-1-(5-oxo-4,5-dihydro-1,2,4-oxadiazol-3-yl)butan-2-ylcarbamate]	6.30 to 7.30		5.4	−0.8	1.9
CO[C@@H]1[C@H](OC(=O)N[C@H](c2cn(C[C@H]3CCCN3C)cn2)C(C)C)CC[C@]2(CO2)[C@H]1[C@@]1(C)O[C@@H]1CC=C(C)C [Example 16, (3R,4S,5S,6R)-5-methoxy-4-((2R,3R)-2-methyl-3-(3-methylbut-2-enyl)oxiran-2-yl)-1-oxaspiro[2.5]octan-6-yl (S)-2-methyl-1-(1-(((R)-1-methylpyrrolidin-2-yl)methyl)-1H-imidazol-4-yl)propylcarbamate]	6.30 to 7.30	6.6		2.8	
CNc1nnc([C@@H](NC(=O)O[C@@H]2CC[C@]3(CO3)[C@@H]([C@@]3(C)O[C@@H]3CC=C(C)C)[C@@H]2OC)C(C)C)o1 [Example 2, (3R,5S,6R)-5-methoxy-4-((2R,3R)-2-methyl-3-(3-methylbut-2-enyl)oxiran-2-yl)-1-oxaspiro[2.5]octan-6-yl (S)-2-methyl-1-(5-(methylamino)-1,3,4-oxadiazol-2-yl)propylcarbamate]	> 7.30	5.4	4.6	0.6	0.9
CO[C@@H]1[C@H](OC(=O)N[C@H](c2nccn2C[C@@H]2CCCN2C)C(C)C)CC[C@]2(CO2)[C@H]1[C@@]1(C)O[C@@H]1CC=C(C)C [Example 6, (3R,4S,5S,6R)-5-methoxy-4-((2R,3R)-2-methyl-3-(3-methylbut-2-enyl)oxiran-2-yl)-1-oxaspiro[2.5]octan-6-yl (S)-2-methyl-1-(1-(((S)-1-methylpyrrolidin-2-yl)methyl)-1H-imidazol-2-yl)propylcarbamate formate]	6.30 to 7.30	6.5		0.1	2.1
CO[C@@H]1[C@H](OC(=O)N[C@@H](c2cn(C[C@H]3CCN(C)C3)cn2)C(C)C)CC[C@]2(CO2)[C@H]1[C@@]1(C)O[C@@H]1CC=C(C)C [Example 12, (3R,4S,5S,6R)-5-methoxy-4-((2R,3R)-2-methyl-3-(3-methylbut-2-enyl)oxiran-2-yl)-1-oxaspiro[2.5]octan-6-yl (R)-2-methyl-1-(1-(((S)-1-methylpyrrolidin-3-yl)methyl)-1H-imidazol-4-yl)propylcarbamate formate]	6.30 to 7.30	9.5		12.9	18.8
CO[C@@H]1[C@H](OC(=O)N[C@H](c2cn(CCN3CCOCC3)cn2)C(C)C)CC[C@]2(CO2)[C@H]1[C@@]1(C)O[C@@H]1CC=C(C)C [Example 17, (3R,4S,5S,6R)-5-methoxy-4-((2R,3R)-2-methyl-3-(3-methylbut-2-enyl)oxiran-2-yl)-1-oxaspiro[2.5]octan-6-yl (S)-2-methyl-1-(1-(2-morpholinoethyl)-1H-imidazol-4-yl)propylcarbamate]	6.30 to 7.30	3.2			
CNc1nnc(C[C@H](NC(=O)O[C@@H]2CC[C@]3(CO3)[C@@H]([C@@]3(C)O[C@@H]3CC=C(C)C)[C@@H]2OC)C(C)C)s1 [Example 34, (3R,4S,5S,6R)-5-methoxy-4-((2R,3R)-2-methyl-3-(3-methylbut-2-enyl)oxiran-2-yl)-1-oxaspiro[2.5]octan-6-yl (S)-3-methyl-1-(5-(methylamino)-1,3,4-thiadiazol-2-yl)butan-2-ylcarbamate]	6.30 to 7.30	3.4			
CO[C@@H]1[C@H](OC(=O)N[C@H](c2cn(C[C@H]3CCN(CC(F)F)C3)cn2)C(C)C)CC[C@]2(CO2)[C@H]1[C@@]1(C)O[C@@H]1CC=C(C)C [Example 18, (3R,4S,5S,6R)-5-methoxy-4-((2R,3R)-2-methyl-3-(3-methylbut-2-enyl)oxiran-2-yl)-1-oxaspiro[2.5]octan-6-yl (S)-1-(1-(((S)-1-(2,2-difluoroethyl)pyrrolidin-3-yl)methyl)-1H-imidazol-4-yl)-2-methylpropylcarbamate]	6.30 to 7.30	-0.4			
CO[C@@H]1[C@H](OC(=O)N[C@H](c2ccc(N3CCC3)nc2)C(C)C)CC[C@]2(CO2)[C@H]1[C@@]1(C)O[C@@H]1CC=C(C)C [Example 41, (3R,4S,5S,6R)-5-methoxy-4-((2R,3R)-2-methyl-3-(3-methylbut-2-enyl)oxiran-2-yl)-1-oxaspiro[2.5]octan-6-yl ((S)-1-(6-(azetidin-1-yl)pyridin-3-yl)-2-methylpropyl)carbamate]	> 7.30	11.7			
